Assay results as given in ChEMBL document CHEMBL3352328, “Synthesis and biological evaluation of a new series of N-acyldiamines as potential antibacterial and antifungal agents” (2014).
Values after ≈ are worked out from the molar mass of the structure shown. Active and inactive are the calls of the source. The calls are words filed in the database; no cut-off is given here.

Key:
[1] = test system: Candida albicans; test: Antifungal activity against Candida albicans ATCC 18804 by broth microdilution method; format: functional
[2] = test system: Pseudomonas aeruginosa; test: Bactericidal activity against Pseudomonas aeruginosa ATCC 27853 after 24 hrs; format: functional; settings: ATCC 27853, 24 h
[3] = test system: Staphylococcus epidermidis; test: Bactericidal activity against Staphylococcus epidermidis ATCC 12228 after 24 hrs; format: functional; settings: ATCC 12228, 24 h
[4] = test system: Escherichia coli; test: Antimicrobial activity against Escherichia coli ATCC 11229 by broth dilution method; format: functional
[5] = test system: Candida parapsilosis; test: Antifungal activity against Candida parapsilosis ATCC 22019 by broth microdilution method; format: functional; settings: Lodderomyces parapsilosis
[6] = test system: Escherichia coli; test: Bactericidal activity against Escherichia coli ATCC 11229 after 24 hrs; format: functional; settings: ATCC 11229, 24 h
[7] = test system: Candida tropicalis; test: Antifungal activity against Candida tropicalis ATCC 750 by broth microdilution method; format: functional
[8] = test system: Staphylococcus aureus; test: Antimicrobial activity against Staphylococcus aureus ATCC 29213 by broth dilution method; format: functional
[9] = test system: Staphylococcus epidermidis; test: Antimicrobial activity against Staphylococcus epidermidis ATCC 12228 by broth dilution method; format: functional
[10] = test system: Staphylococcus aureus; test: Bacteriostatic activity against Staphylococcus aureus ATCC 29213 after 24 hrs; format: functional, organism-based
[11] = test system: Nakaseomyces glabratus; test: Antifungal activity against Candida glabrata ATCC 90030 by broth microdilution method; format: functional
[12] = test system: Pseudomonas aeruginosa; test: Antimicrobial activity against Pseudomonas aeruginosa ATCC 27853 by broth dilution method; format: functional
[13] = test system: Staphylococcus aureus; test: Bactericidal activity against methicillin-resistant Staphylococcus aureus clinical isolate 8 after 24 hrs; format: functional; settings: isolate 8, 24 h
[14] = test system: Staphylococcus aureus; test: Bactericidal activity against methicillin-resistant Staphylococcus aureus clinical isolate 3 after 24 hrs; format: functional; settings: isolate 3, 24 h
[15] = test system: Staphylococcus aureus; test: Bactericidal activity against methicillin-resistant Staphylococcus aureus clinical isolate 6 after 24 hrs; format: functional; settings: isolate 6, 24 h
[16] = test system: Staphylococcus aureus; test: Bactericidal activity against methicillin-resistant Staphylococcus aureus clinical isolate 2 after 24 hrs; format: functional; settings: isolate 2, 24 h
[17] = test system: Staphylococcus aureus; test: Bactericidal activity against methicillin-resistant Staphylococcus aureus clinical isolate 7 after 24 hrs; format: functional; settings: isolate 7, 24 h
[18] = test system: Staphylococcus aureus; test: Bactericidal activity against methicillin-resistant Staphylococcus aureus clinical isolate 15 after 24 hrs; format: functional; settings: isolate 15, 24 h
[19] = test system: Staphylococcus aureus; test: Bactericidal activity against methicillin-resistant Staphylococcus aureus clinical isolate 20 after 24 hrs; format: functional; settings: isolate 20, 24 h
[20] = test system: Staphylococcus aureus; test: Bactericidal activity against methicillin-resistant Staphylococcus aureus clinical isolate 21 after 24 hrs; format: functional; settings: isolate 21, 24 h
[21] = test system: Staphylococcus aureus; test: Bactericidal activity against methicillin-resistant Staphylococcus aureus clinical isolate 18 after 24 hrs; format: functional; settings: isolate 18, 24 h
[22] = test system: Pseudomonas aeruginosa; test: Bacteriostatic activity against Pseudomonas aeruginosa ATCC 27853 after 24 hrs; format: functional, organism-based
[23] = test system: Staphylococcus aureus; test: Bactericidal activity against methicillin-resistant Staphylococcus aureus clinical isolate 9 after 24 hrs; format: functional; settings: isolate 9, 24 h
[24] = test system: Staphylococcus aureus; test: Bactericidal activity against methicillin-resistant Staphylococcus aureus clinical isolate 19 after 24 hrs; format: functional; settings: isolate 19, 24 h
[25] = test system: Staphylococcus aureus; test: Bactericidal activity against methicillin-resistant Staphylococcus aureus clinical isolate 5 after 24 hrs; format: functional; settings: isolate 5, 24 h
[26] = test system: Staphylococcus aureus; test: Bactericidal activity against methicillin-resistant Staphylococcus aureus clinical isolate 11 after 24 hrs; format: functional; settings: isolate 11, 24 h
[27] = test system: Staphylococcus aureus; test: Bactericidal activity against methicillin-resistant Staphylococcus aureus clinical isolate after 24 hrs; format: functional
[28] = test system: Staphylococcus aureus; test: Bactericidal activity against methicillin-resistant Staphylococcus aureus clinical isolate 17 after 24 hrs; format: functional; settings: isolate 17, 24 h
[29] = test system: Staphylococcus aureus; test: Bactericidal activity against methicillin-resistant Staphylococcus aureus clinical isolate 12 after 24 hrs; format: functional; settings: isolate 12, 24 h
[30] = test system: Staphylococcus aureus; test: Bactericidal activity against methicillin-resistant Staphylococcus aureus clinical isolate 14 after 24 hrs; format: functional; settings: isolate 14, 24 h
[31] = test system: Staphylococcus aureus; test: Bactericidal activity against methicillin-resistant Staphylococcus aureus clinical isolate 13 after 24 hrs; format: functional; settings: isolate 13, 24 h
[32] = test system: Escherichia coli; test: Bacteriostatic activity against Escherichia coli ATCC 11229 after 24 hrs; format: functional, organism-based
[33] = test system: Staphylococcus aureus; test: Bactericidal activity against methicillin-resistant Staphylococcus aureus clinical isolate 1 after 24 hrs; format: functional; settings: isolate 1, 24 h
[34] = test system: Staphylococcus aureus; test: Bactericidal activity against methicillin-resistant Staphylococcus aureus clinical isolate 16 after 24 hrs; format: functional; settings: isolate 16, 24 h
[35] = test system: Staphylococcus aureus; test: Bactericidal activity against methicillin-resistant Staphylococcus aureus clinical isolate 10 after 24 hrs; format: functional; settings: isolate 10, 24 h
[36] = test system: Staphylococcus aureus; test: Bactericidal activity against methicillin-resistant Staphylococcus aureus clinical isolate 4 after 24 hrs; format: functional; settings: isolate 4, 24 h
[37] = test system: Staphylococcus aureus; test: Bactericidal activity against Staphylococcus aureus ATCC 29213 after 24 hrs; format: functional; settings: ATCC 29213, 24 h

Compound | MBC [3] [µg/mL] | MIC [9] [µg/mL] | MIC [12] [µg/mL] | MBC [13] [µg/mL] | MBC [14] [µg/mL] | MBC [15] [µg/mL] | MBC [16] [µg/mL] | MBC [17] [µg/mL] | MBC [18] [µg/mL] | MBC [19] [µg/mL] | MBC [20] [µg/mL] | MBC [21] [µg/mL] | MBC [23] [µg/mL] | MBC [24] [µg/mL] | MBC [25] [µg/mL] | MBC [26] [µg/mL] | MBC [28] [µg/mL] | MBC [29] [µg/mL] | MBC [30] [µg/mL] | MBC [31] [µg/mL] | also measured
CCCCCCCCCCCC(=O)NCCCN | 32 (≈ 125 µM) | 32 (≈ 125 µM) | 64 (≈ 250 µM) |  |  |  |  |  |  |  |  |  |  |  |  |  |  |  |  |  | MIC [1]: 256 µg/mL (≈ 998 µM); MBC [2]: 256 µg/mL (≈ 998 µM); MIC [4]: 128 µg/mL (≈ 499 µM); MIC [5]: 64 µg/mL (≈ 250 µM); MBC [6]: 512 µg/mL (≈ 2000 µM); MIC [7]: 128 µg/mL (≈ 499 µM); MIC [8]: 256 µg/mL (≈ 998 µM); Activity [10]: Active; MIC [11]: 32 µg/mL (≈ 125 µM)
O=C(N[C@H](CO)[C@H](O)c1ccc([N+](=O)[O-])cc1)C(Cl)Cl [CHLORAMPHENICOL] | 128 (≈ 396 µM) | 32 (≈ 99 µM) | 32 (≈ 99 µM) | 64 (≈ 198 µM) | 4 (≈ 12.4 µM) | 8 (≈ 24.8 µM) | 4 (≈ 12.4 µM) | 64 (≈ 198 µM) | 32 (≈ 99 µM) | 4 (≈ 12.4 µM) | 8 (≈ 24.8 µM) | 8 (≈ 24.8 µM) | 8 (≈ 24.8 µM) | 128 (≈ 396 µM) | 4 (≈ 12.4 µM) | 64 (≈ 198 µM) | 4 (≈ 12.4 µM) | 64 (≈ 198 µM) | 64 (≈ 198 µM) | 64 (≈ 198 µM) | Activity [22]: Active; MIC90 [27]: 32 µg/mL (≈ 99 µM); Activity [32]: Active; MBC [33]: 64 µg/mL (≈ 198 µM); Activity [10]: Active; MBC [34]: 32 µg/mL (≈ 99 µM); MBC [35]: 64 µg/mL (≈ 198 µM); MBC [36]: 8 µg/mL (≈ 24.8 µM)
CN[C@H](CC(C)C)C(=O)N[C@H]1C(=O)N[C@@H](CC(N)=O)C(=O)N[C@H]2C(=O)N[C@H]3C(=O)N[C@H](C(=O)N[C@H](C(=O)O)c4cc(O)cc(O)c4-c4cc3ccc4O)[C@H](O)c3ccc(c(Cl)c3)Oc3cc2cc(c3O[C@@H]2O[C@H](CO)[C@@H](O)[C@H](O)[C@H]2O[C@H]2C[C@](C)(N)[C@H](O)[C@H](C)O2)Oc2ccc(cc2Cl)[C@H]1O [VANCOMYCIN] |  |  |  | 0.5 (≈ 0.345 µM) | 0.5 (≈ 0.345 µM) | 1 (≈ 0.69 µM) | 1 (≈ 0.69 µM) | 1 (≈ 0.69 µM) | 1 (≈ 0.69 µM) | 0.5 (≈ 0.345 µM) | 0.5 (≈ 0.345 µM) | 1 (≈ 0.69 µM) | 1 (≈ 0.69 µM) | 0.5 (≈ 0.345 µM) | 1 (≈ 0.69 µM) | 1 (≈ 0.69 µM) | 0.5 (≈ 0.345 µM) | 1 (≈ 0.69 µM) | 1 (≈ 0.69 µM) | 1 (≈ 0.69 µM) | MBC [33]: 1 µg/mL (≈ 0.69 µM); MBC [34]: 1 µg/mL (≈ 0.69 µM); MBC [35]: 1 µg/mL (≈ 0.69 µM); MBC [36]: 1 µg/mL (≈ 0.69 µM)
CCCCCCCC/C=C\CCCCCCCC(=O)NCCCN | 16 (≈ 47.3 µM) | 1 (≈ 2.95 µM) | > 1020 | 16 (≈ 47.3 µM) | 16 (≈ 47.3 µM) | 64 (≈ 189 µM) | 16 (≈ 47.3 µM) | 16 (≈ 47.3 µM) | 16 (≈ 47.3 µM) | 1020 (≈ 3020 µM) | 512 (≈ 1510 µM) | 8 (≈ 23.6 µM) | 16 (≈ 47.3 µM) | 4 (≈ 11.8 µM) | 16 (≈ 47.3 µM) | 16 (≈ 47.3 µM) | 16 (≈ 47.3 µM) | 16 (≈ 47.3 µM) | 1020 (≈ 3020 µM) | 64 (≈ 189 µM) | MIC [1]: 2 µg/mL (≈ 5.91 µM); MIC [4]: 4 µg/mL (≈ 11.8 µM); MIC [5]: 4 µg/mL (≈ 11.8 µM); MIC50 [27]: 16 µg/mL (≈ 47.3 µM); MIC90 [27]: 512 µg/mL (≈ 1510 µM); MIC [7]: 4 µg/mL (≈ 11.8 µM); MBC [37]: 128 µg/mL (≈ 378 µM); MIC [8]: 2 µg/mL (≈ 5.91 µM); Activity [32]: Active; MBC [33]: 16 µg/mL (≈ 47.3 µM); MBC [34]: 8 µg/mL (≈ 23.6 µM); MIC [11]: 4 µg/mL (≈ 11.8 µM); MBC [35]: 8 µg/mL (≈ 23.6 µM); MBC [36]: 512 µg/mL (≈ 1510 µM)
